Measured values: US20220007644A1, “COMPOSITIONS COMPRISING PYRIDINE CARBOXYLATE HERBICIDES WITH PHOTOSYSTEM II AND OPTIONAL HPPD INHIBITOR HERBICIDES” (Corteva Agriscience LLC, priority 2018, published 2022)

Tests used:
Assay type in all cases: in vivo
[1] = tested on: CHEAL, Chenopodium album L. (common lambsquarters); experiment: Greenhouse postemergence herbicidal effect (visual injury, 20-22 d)
Text: (§1) Greenhouse Trial Methodology—Evaluation of Postemergence Herbicidal Effect
(§2) Seeds of the desired test plant species were planted in a 90:10% v/v (volume/volume) mixture of PRO-MIX® BX (Premier Tech Horticulture, Quakertown, Pa., USA) and PROFILE®GREENS GRADE™ (Profile Products LLC, Buffalo Grove, Ill., USA) planting mixture, which typically has a pH of 5.2 to 6.2 and an organic matter content of at least 50 percent, in plastic pots with a surface area of 103.2 square centimeters (cm^2). In some aspects, to help ensure good germination and healthy plants, a fungicide treatment and/or other chemical or physical treatment was applied. The plants were grown for 7-36 days (d) in a greenhouse with an approximate 14-hour (h) photoperiod which was maintained at about 23° C. during the day and 22° C. during the night. Nutrients and water were added on a regular basis and supplemental lighting was provided with overhead metal halide 1000-Watt lamps as necessary. The plants were employed for testing when they reached the second or third true leaf stage.
(§3) Emulsifiable concentrates of each of each pyridine carboxylate herbicide (Compound A or Compound B) were prepared at 100 grams acid equivalent per liter (g ae/L). The emulsifiable concentrates also included a safener, cloquintocet-mexyl, at 120 grams active ingredient per liter (g ai/L), unless otherwise noted below. An aliquot of each emulsifiable concentrate was placed in a 25 mL glass vial and diluted with an aqueous mixture of 1.25% (v/v) ACTIROB® B esterified rapeseed oil (Bayer Crop Science, Research Triangle Park, N.C., USA) or MSO® Concentrate with LECI-TECH® methylated soybean oil (Loveland Products, Loveland, Colo., USA) to obtain concentrated stock solutions at the highest application rate for each herbicide, based upon a 12 milliliter (mL) application volume at a rate of 187 liters per hectare (L/ha). The concentrated stock solutions were further diluted with an aqueous mixture of 1.25% v/v ACTIROB® B or MSO® Concentrate with LECI-TECH® to obtain stock solutions at reduced application rates for each herbicide. Spray solutions of the herbicide combinations (Compound A or Compound B plus PS-II herbicide and optional HPPD herbicide) were prepared by adding weighed amounts or aliquots of the PS-II herbicide and optional HPPD herbicide to the stock solutions of Compound A or Compound B to form 12-mL spray solutions in two- or three-way combinations.
(§4) The spray solutions were applied to the plant material with an overhead Mandel track sprayer equipped with 8002E nozzles calibrated to deliver 187 L/ha over an application area of 0.503 square meters (m^2) at a spray height of 18 inches ([…] centimeters (cm)) above the average plant canopy. Control plants were sprayed in the same manner with the solvent blank. All pyridine carboxylate herbicide (component a) application rates are given as “g ae/ha” and all PS II inhibitor herbicide (component b) and HPPD inhibitor herbicide (component c) application rates are given as “g ai/ha.”
(§5) The treated plants and control plants were placed in a greenhouse as described above and watered by sub-irrigation to prevent wash-off of the test compounds. After 20-22 d, the condition of the test plants as compared with that of the control plants was determined visually and scored on a scale of 0 to 100 percent where 0 corresponds to no injury and 100 corresponds to complete kill.

[2] = tested on: SINAR, Sinapis arvensis (wild mustard); experiment: as above
Text: as §1, §2, §3, §4, §5

[3] = tested on: BRSNN, Brassica napus (spring rape); experiment: as above
Text: as §1, §2, §3, §4, §5

[4] = tested on: SASKR, Salsola kali (Russian thistle); experiment: as above
Text: as §1, §2, §3, §4, §5

[5] = tested on: KCHSC, Kochia scoparia (kochia); experiment: as above
Text: as §1, §2, §3, §4, §5

[6] = tested on: POLCO, Polygonum convolvulus (wild buckwheat); experiment: as above
Text: as §1, §2, §3, §4, §5

[7] = tested on: VIOTR, Viola tricolor (wild pansy); experiment: as above; conditions: 450 g ai/ha alone
Text: as §1, §2, §3, §4, §5

[8] = tested on: ALOMY, Alopecurus myosuroides (blackgrass); experiment: as above; conditions: 450 g ai/ha alone
Text: as §1, §2, §3, §4, §5

[9] = tested on: AVEFA, Avena fatua (wild oat); experiment: as above; conditions: 450 g ai/ha alone
Text: as §1, §2, §3, §4, §5

[10] = tested on: HORVS, Hordeum vulgare (spring barley); experiment: Greenhouse postemergence phytotoxicity on crop (visual injury, 20-22 d)
Text: as §1, §2, §3, §4, §5

[11] = tested on: TRZAS, Triticum aestivum (spring wheat); experiment: as above
Text: as §1, §2, §3, §4, §5

[12] = tested on: AMARE, Amaranthus retroflexus (pigweed); experiment: Greenhouse postemergence herbicidal effect (visual injury, 20-22 d)
Text: as §1, §2, §3, §4, §5

[13] = tested on: CIRAR, Cirsium arvense (Canada thistle); experiment: as above
Text: as §1, §2, §3, §4, §5

[14] = tested on: BRSNW, Brassica napus (winter rape); experiment: as above
Text: as §1, §2, §3, §4, §5

[15] = tested on: MATCH, Matricaria chamomilla (wild chamomile); experiment: as above
Text: as §1, §2, §3, §4, §5

[16] = tested on: IPOHE, Ipomoea hederacea (ivyleaf morningglory); experiment: as above; conditions: 5 g ai/ha alone
Text: as §1, §2, §3, §4, §5

[17] = tested on: SORVU, Sorghum vulgare (grain sorghum); experiment: as above; conditions: 5 g ai/ha alone
Text: as §1, §2, §3, §4, §5

[18] = tested on: GLXMA, Glycine max (soybean); experiment: as above; conditions: 5 g ai/ha alone
Text: as §1, §2, §3, §4, §5

[19] = tested on: ABUTH, Abutilon theophrasti (velvetleaf); experiment: as above; conditions: 5 g ai/ha alone
Text: as §1, §2, §3, §4, §5

[20] = Fallopia convolvulus, post-emergence, read-out: visual injury Obs

CC(C)c1nn(C(=O)NC(C)(C)C)c(=O)n1N [Amicarbazone, 4-amino-N-tert-butyl-4,5-dihydro-3-isopropyl-5-oxo-1H-1,2,4-triazole-1-carboxamide]
visual injury Obs ([1]; 175 g ai/ha alone): 38%
visual injury Obs ([2]; 175 g ai/ha alone): 25%
visual injury Obs ([3]; 175 g ai/ha alone): 38%
visual injury Obs ([4]; 175 g ai/ha alone): 0%
visual injury Obs ([5]; 175 g ai/ha alone): 25%
pest or weed control at 175 g/ha ([6]; Fallopia convolvulus, post-emergence, 175 g ai/ha alone, read-out: visual injury Obs): 10%

CCNc1nc(Cl)nc(NC(C)C)n1 [Atrazine, 6-chloro-N^2-ethyl-N^4-isopropyl-1,3,5-triazine-2,4-diamine, reference compound]
visual injury Obs ([3]; 450 g ai/ha alone): 28%
visual injury Obs [7]: 20%
visual injury Obs [8]: 25%
visual injury Obs [9]: 13%

CC(C)N1C(=O)c2ccccc2NS1(=O)=O [Bentazone, 3-isopropyl-1H-2,1,3-benzothiadiazin-4(3H)-one 2,2-dioxide]
visual injury Obs ([3]; 51.5 g ai/ha alone): 30%
pest or weed control at 51.5 g/ha ([6]; Fallopia convolvulus, post-emergence, 51.5 g ai/ha alone, read-out: visual injury Obs): 20%
visual injury Obs ([10]; 51.5 g ai/ha alone): 0%
visual injury Obs ([11]; 51.5 g ai/ha alone): 0%

CCC(C)n1c(=O)[nH]c(C)c(Br)c1=O (stereo not shown) [Bromacil, 5-bromo-3-sec-butyl-6-methyluracil]
visual injury Obs ([12]; 900 g ai/ha alone): 20%
visual injury Obs ([1]; 900 g ai/ha alone): 53%
visual injury Obs ([2]; 900 g ai/ha alone): 35%
visual injury Obs ([4]; 900 g ai/ha alone): 25%
visual injury Obs ([13]; 900 g ai/ha alone): 18%
visual injury Obs ([14]; 900 g ai/ha alone): 5%
visual injury Obs ([5]; 900 g ai/ha alone): 91%
pest or weed control at 900 g/ha [6, 20]: 10%
visual injury Obs ([15]; 900 g ai/ha alone): 5%
visual injury Obs ([10]; 900 g ai/ha alone): 10%
visual injury Obs ([11]; 900 g ai/ha alone): 0%

CCOC(=O)Nc1cccc(OC(=O)Nc2ccccc2)c1 [Desmedipham, 3-ethoxycarbonylaminophenyl phenylcarbamate]
visual injury Obs ([12]; 162.5 g ai/ha alone): 15%
visual injury Obs ([1]; 162.5 g ai/ha alone): 0%
visual injury Obs ([2]; 162.5 g ai/ha alone): 0%
visual injury Obs ([4]; 162.5 g ai/ha alone): 0%
visual injury Obs ([13]; 162.5 g ai/ha alone): 10%
visual injury Obs ([14]; 162.5 g ai/ha alone): 0%
visual injury Obs ([5]; 162.5 g ai/ha alone): 0%
pest or weed control at 162.5 g/ha [6, 20]: 0%
visual injury Obs ([15]; 162.5 g ai/ha alone): 0%
visual injury Obs ([10]; 162.5 g ai/ha alone): 0%
visual injury Obs ([11]; 162.5 g ai/ha alone): 0%

CN(C)C(=O)Nc1ccc(Cl)c(Cl)c1 [Diuron, 3-(3,4-dichlorophenyl)-1,1-dimethylurea]
visual injury Obs ([12]; 220 g ai/ha alone): 98%
visual injury Obs ([1]; 220 g ai/ha alone): 100%
visual injury Obs ([2]; 220 g ai/ha alone): 5%
visual injury Obs ([4]; 220 g ai/ha alone): 40%
visual injury Obs ([13]; 220 g ai/ha alone): 40%
visual injury Obs ([14]; 220 g ai/ha alone): 5%
visual injury Obs ([5]; 220 g ai/ha alone): 90%
pest or weed control at 220 g/ha [6, 20]: 5%
visual injury Obs ([15]; 220 g ai/ha alone): 15%
visual injury Obs ([10]; 220 g ai/ha alone): 10%
visual injury Obs ([11]; 220 g ai/ha alone): 0%

CSc1nnc(C(C)(C)C)c(=O)n1N [Metribuzin, 4-amino-6-tert-butyl-3-methythio-1,2,4-triazin-5(4H)-one]
visual injury ([12]; 25 g ai/ha alone): 0%
visual injury ([1]; 25 g ai/ha alone): 3%
visual injury ([2]; 25 g ai/ha alone): 18%
visual injury ([4]; 25 g ai/ha alone): 0%
visual injury ([13]; 25 g ai/ha alone): 3%
visual injury ([14]; 25 g ai/ha alone): 0%
visual injury ([5]; 25 g ai/ha alone): 0%
visual injury ([6]; 25 g ai/ha alone): 0%
visual injury ([15]; 25 g ai/ha alone): 0%
visual injury ([10]; 25 g ai/ha alone): 0%
visual injury ([11]; 25 g ai/ha alone): 0%

CCC(=O)Nc1ccc(Cl)c(Cl)c1 [Propanil, 3′,4′-dichloropropionanilide, reference compound]
visual injury Obs ([13]; 5 g ai/ha alone): 28%
visual injury Obs [16]: 38%
pest or weed control at 5 g/ha ([6]; Fallopia convolvulus, post-emergence, 5 g ai/ha alone, read-out: visual injury Obs): 20%
visual injury Obs [17]: 15%
visual injury Obs [18]: 23%
visual injury Obs [19]: 10%

CCCCCCCCSC(=O)Oc1cc(Cl)nnc1-c1ccccc1 [Pyridate, O-6-chloro-3-phenylpyridazin-4-yl S-octyl thiocarbonate]
visual injury Obs ([1]; 125 g ai/ha alone): 0%
visual injury Obs ([2]; 125 g ai/ha alone): 0%
visual injury Obs ([3]; 125 g ai/ha alone): 15%
visual injury Obs ([4]; 125 g ai/ha alone): 0%
visual injury Obs ([5]; 125 g ai/ha alone): 0%
pest or weed control at 125 g/ha ([6]; Fallopia convolvulus, post-emergence, 125 g ai/ha alone, read-out: visual injury Obs): 0%
visual injury Obs ([10]; 125 g ai/ha alone): 5%
visual injury Obs ([11]; 125 g ai/ha alone): 0%

CNC(=O)N(C)c1nnc(C(C)(C)C)s1 [Tebuthiuron, 1-(5-tert-butyl-1,3,4-thiadiazol-2-yl)-1,3-dimethylurea, reference compound]
visual injury Obs ([12]; 280 g ai/ha alone): 88%
visual injury Obs ([1]; 280 g ai/ha alone): 98%
visual injury Obs ([2]; 280 g ai/ha alone): 35%
visual injury Obs ([13]; 280 g ai/ha alone): 40%
visual injury Obs ([14]; 280 g ai/ha alone): 45%
visual injury Obs ([5]; 280 g ai/ha alone): 23%
pest or weed control at 280 g/ha [6, 20]: 40%
visual injury Obs ([15]; 280 g ai/ha alone): 25%
visual injury Obs ([10]; 280 g ai/ha alone): 28%
visual injury Obs ([11]; 280 g ai/ha alone): 0%
